Reference: ChEMBL document CHEMBL1909046, “DrugMatrix in vitro pharmacology data”

What was measured:
[1] = DRUGMATRIX: Glutamate, AMPA radioligand binding (ligand: [3H] AMPA); assay type: cell membranes, Rattus norvegicus, Wistar, Cerebral cortex, Membrane; conditions: Not Active = under 50% inhibition at 10 µM
[2] = DRUGMATRIX: GABAA, Muscimol, Central radioligand binding (ligand: [3H] Muscimol); assay type: cell membranes, Rattus norvegicus, Wistar, Brain, Membrane; conditions: Not Active = under 50% inhibition at 10 µM
Calcitonin receptor = molecular target: T1, Calcitonin receptor (Homo sapiens, UniProt P30988); assay type: cell membranes, Membrane; conditions: t47d; also: in other assays of this panel Not Active means under 50% inhibition at 10 µM
T1 sequence (P30988 whole entry): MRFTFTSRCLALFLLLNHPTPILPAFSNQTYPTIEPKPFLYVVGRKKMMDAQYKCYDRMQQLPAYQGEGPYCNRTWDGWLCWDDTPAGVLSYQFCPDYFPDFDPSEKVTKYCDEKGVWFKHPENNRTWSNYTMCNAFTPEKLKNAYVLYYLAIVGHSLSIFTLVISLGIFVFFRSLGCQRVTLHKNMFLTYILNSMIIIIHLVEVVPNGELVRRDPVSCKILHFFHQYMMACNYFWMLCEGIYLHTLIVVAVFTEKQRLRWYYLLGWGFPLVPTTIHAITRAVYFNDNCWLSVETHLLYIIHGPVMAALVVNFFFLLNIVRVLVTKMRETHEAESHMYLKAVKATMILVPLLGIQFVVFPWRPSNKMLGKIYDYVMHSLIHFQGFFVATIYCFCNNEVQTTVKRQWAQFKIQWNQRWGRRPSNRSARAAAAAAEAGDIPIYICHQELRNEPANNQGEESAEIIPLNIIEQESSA

[3] = molecular target: Sodium-dependent dopamine transporter (Homo sapiens, UniProt Q01959); experiment: DRUGMATRIX: Dopamine Transporter radioligand binding (ligand: [125I] RTI-55); assay type: cell membranes, CHO-K1, Membrane; conditions: Not Active = under 50% inhibition at 10 µM
[4] = molecular target: T2, Type-2 angiotensin II receptor (Homo sapiens, UniProt P50052); assay type: cell-based; conditions: cho-k1; also: in other assays of this panel Not Active means under 50% inhibition at 10 µM
T2 sequence (P50052 whole entry): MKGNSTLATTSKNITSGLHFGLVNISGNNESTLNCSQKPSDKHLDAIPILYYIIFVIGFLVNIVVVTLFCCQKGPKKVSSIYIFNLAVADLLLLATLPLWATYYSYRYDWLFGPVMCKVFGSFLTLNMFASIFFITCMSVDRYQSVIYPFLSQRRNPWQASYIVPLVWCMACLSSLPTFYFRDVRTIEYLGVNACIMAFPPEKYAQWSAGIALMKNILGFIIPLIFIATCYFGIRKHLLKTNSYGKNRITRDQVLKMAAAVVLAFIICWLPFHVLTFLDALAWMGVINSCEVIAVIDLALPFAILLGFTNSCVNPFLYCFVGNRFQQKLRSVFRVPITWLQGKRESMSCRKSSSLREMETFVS

Cytochrome P450 2E1 = Cytochrome P450 2E1 (Homo sapiens, UniProt P05181); conditions: bti-tn-5b1-4; also: in other assays of this panel Not Active means under 50% inhibition at 10 µM
[5] = DRUGMATRIX: beta-Lactamase enzyme inhibition (substrate: Nitrocefin); set-up: species or system Bacillus cereus; conditions: Not Active = under 50% inhibition at 10 µM
[6] = molecular target: Vascular endothelial growth factor receptor 1 (Homo sapiens, UniProt P17948); assay type: cell-based; conditions: huvec; also: in other assays of this panel Not Active means under 50% inhibition at 10 µM
D(4) dopamine receptor = molecular target: T3, D(4) dopamine receptor (Homo sapiens, UniProt P21917); experiment: DRUGMATRIX: Dopamine D4.2 radioligand binding (ligand: [3H] Spiperone); assay type: cell membranes, CHO-K1, Membrane; conditions: cho-k1; Not Active = under 50% inhibition at 10 µM
T3 sequence (P21917 whole entry): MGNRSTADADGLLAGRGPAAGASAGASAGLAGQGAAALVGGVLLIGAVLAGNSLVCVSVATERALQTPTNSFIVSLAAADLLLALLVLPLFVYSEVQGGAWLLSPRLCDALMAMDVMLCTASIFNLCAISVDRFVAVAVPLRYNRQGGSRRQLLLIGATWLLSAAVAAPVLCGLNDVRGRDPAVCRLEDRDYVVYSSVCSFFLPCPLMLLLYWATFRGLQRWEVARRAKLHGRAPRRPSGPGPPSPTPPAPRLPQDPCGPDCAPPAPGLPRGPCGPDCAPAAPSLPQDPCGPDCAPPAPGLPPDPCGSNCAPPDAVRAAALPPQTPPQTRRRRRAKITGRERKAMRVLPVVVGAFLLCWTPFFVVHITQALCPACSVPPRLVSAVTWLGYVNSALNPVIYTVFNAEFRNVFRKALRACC

[7] = molecular target: C-C chemokine receptor type 2 (Homo sapiens, UniProt P41597); assay type: cell membranes, CHO-K1, Membrane; conditions: cho-k1; also: in other assays of this panel Not Active means under 50% inhibition at 10 µM
C-C chemokine receptor type 2, sequence (P41597 whole entry): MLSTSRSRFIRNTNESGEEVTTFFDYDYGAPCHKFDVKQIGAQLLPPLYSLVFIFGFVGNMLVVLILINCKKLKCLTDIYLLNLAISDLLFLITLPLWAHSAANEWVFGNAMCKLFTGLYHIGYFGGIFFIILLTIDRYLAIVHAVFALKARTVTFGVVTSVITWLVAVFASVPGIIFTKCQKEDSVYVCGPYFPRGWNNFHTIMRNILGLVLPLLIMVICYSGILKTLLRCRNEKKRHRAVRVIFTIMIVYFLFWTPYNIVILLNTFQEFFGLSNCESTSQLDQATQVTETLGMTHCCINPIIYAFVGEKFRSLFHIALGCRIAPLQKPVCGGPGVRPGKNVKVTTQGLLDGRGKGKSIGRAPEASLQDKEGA

Sodium-dependent dopamine transporter, sequence (Q01959 whole entry): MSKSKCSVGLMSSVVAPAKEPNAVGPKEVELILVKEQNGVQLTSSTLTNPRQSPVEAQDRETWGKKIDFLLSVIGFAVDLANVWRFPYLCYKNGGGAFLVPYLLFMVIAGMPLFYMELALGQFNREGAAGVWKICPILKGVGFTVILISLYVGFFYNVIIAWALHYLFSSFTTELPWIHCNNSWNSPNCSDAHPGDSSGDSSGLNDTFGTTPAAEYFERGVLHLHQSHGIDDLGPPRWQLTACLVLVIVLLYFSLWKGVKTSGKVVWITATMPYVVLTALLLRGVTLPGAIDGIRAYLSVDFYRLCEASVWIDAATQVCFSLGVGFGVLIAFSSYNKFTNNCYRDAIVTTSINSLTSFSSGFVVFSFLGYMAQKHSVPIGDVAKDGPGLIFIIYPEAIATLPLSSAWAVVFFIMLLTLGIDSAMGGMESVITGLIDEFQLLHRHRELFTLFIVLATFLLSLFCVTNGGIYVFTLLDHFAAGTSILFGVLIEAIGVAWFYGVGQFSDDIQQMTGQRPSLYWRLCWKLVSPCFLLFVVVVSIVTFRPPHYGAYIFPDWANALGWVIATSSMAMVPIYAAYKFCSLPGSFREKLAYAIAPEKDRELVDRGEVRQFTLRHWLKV
Cytochrome P450 2E1, sequence (P05181 whole entry): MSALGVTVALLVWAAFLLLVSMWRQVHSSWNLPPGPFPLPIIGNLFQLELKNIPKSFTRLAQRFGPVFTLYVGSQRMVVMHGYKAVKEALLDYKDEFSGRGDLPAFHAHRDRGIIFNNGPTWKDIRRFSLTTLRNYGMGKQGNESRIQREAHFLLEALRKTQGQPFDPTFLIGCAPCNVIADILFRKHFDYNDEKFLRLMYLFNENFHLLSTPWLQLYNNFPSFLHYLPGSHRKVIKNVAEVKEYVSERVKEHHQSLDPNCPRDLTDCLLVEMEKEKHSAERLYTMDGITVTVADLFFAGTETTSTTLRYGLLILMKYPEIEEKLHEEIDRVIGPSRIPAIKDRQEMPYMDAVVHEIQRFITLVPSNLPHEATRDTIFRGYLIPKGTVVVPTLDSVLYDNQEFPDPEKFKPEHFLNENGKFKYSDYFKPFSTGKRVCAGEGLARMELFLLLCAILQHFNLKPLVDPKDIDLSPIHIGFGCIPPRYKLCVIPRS
Vascular endothelial growth factor receptor 1, sequence (P17948 whole entry): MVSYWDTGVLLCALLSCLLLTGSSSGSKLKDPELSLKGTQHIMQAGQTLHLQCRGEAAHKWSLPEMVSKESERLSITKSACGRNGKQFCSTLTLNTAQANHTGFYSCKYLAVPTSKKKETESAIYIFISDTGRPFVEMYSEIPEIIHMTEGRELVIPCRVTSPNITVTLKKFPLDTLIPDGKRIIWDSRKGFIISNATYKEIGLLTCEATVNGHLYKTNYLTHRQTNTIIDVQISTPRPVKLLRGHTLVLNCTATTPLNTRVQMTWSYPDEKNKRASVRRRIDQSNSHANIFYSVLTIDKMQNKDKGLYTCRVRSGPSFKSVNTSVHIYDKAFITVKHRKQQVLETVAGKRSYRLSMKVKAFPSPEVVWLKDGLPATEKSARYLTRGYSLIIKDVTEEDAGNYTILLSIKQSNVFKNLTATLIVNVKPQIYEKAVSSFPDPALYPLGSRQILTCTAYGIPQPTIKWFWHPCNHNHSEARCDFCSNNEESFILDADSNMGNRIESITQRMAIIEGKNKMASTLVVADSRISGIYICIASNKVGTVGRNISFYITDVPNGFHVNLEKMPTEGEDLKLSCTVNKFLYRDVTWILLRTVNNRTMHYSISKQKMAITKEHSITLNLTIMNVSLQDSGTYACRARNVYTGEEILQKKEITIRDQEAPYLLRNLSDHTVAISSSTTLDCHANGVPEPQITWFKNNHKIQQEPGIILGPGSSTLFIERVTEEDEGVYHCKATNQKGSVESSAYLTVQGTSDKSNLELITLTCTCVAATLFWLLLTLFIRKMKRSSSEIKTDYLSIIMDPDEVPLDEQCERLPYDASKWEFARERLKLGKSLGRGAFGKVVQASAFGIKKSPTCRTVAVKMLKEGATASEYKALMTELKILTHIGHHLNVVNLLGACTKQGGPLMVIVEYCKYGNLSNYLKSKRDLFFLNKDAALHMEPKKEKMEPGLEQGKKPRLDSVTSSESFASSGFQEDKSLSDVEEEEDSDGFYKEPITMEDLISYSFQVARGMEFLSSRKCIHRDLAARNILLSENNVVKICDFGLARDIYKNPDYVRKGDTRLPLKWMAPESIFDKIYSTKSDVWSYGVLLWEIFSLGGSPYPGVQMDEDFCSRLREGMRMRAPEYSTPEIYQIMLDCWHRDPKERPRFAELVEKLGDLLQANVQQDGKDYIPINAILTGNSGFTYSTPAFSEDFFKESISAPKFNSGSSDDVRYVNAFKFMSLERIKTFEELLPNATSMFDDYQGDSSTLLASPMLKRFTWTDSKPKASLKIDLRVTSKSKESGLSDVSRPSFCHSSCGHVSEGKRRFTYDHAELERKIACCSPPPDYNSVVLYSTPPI

Row | SMILES | IC50 [1] | Ki [1] | IC50 [2] | Ki [2] | IC50 (Calcitonin receptor) | IC50 ([3]; cho-k1) | IC50 [4] | IC50 (Cytochrome P450 2E1) | Ki (Cytochrome P450 2E1) | IC50 [5] | Ki [5] | IC50 [6] | IC50 (D(4) dopamine receptor) | IC50 [7] | IC50 ([3]; read-out: IC50) | Ki ([3]; read-out: Ki)
1 | NCC1(CC(=O)O)CCCCC1 [GABAPENTIN] | Not Active | Not Active | Not Active | Not Active | Not Active | Not Active | Not Active | Not Active | Not Active | Not Active | Not Active | Not Active | Not Active | Not Active |  | 
2 | CC[N+](CC)(CC)CCOc1cccc(OCC[N+](CC)(CC)CC)c1OCC[N+](CC)(CC)CC.[I-].[I-].[I-] [GALLAMINE TRIETHIODIDE] | Not Active | Not Active | Not Active | Not Active | Not Active | Not Active | Not Active | Not Active | Not Active | Not Active | Not Active | Not Active | Not Active | Not Active |  | 
3 | Nc1nc2c(ncn2COC(CO)CO)c(=O)[nH]1 [GANCICLOVIR] | Not Active | Not Active | Not Active | Not Active | Not Active | Not Active | Not Active | Not Active | Not Active | Not Active | Not Active | Not Active | Not Active | Not Active |  | 
4 | COc1c(N2CCNC(C)C2)c(F)cc2c(=O)c(C(=O)O)cn(C3CC3)c12 (stereo not drawn) [GATIFLOXACIN] | Not Active | Not Active | Not Active | Not Active | Not Active | Not Active | Not Active | Not Active | Not Active | Not Active | Not Active | Not Active | Not Active | Not Active |  | 
5 | CC1(C)[C@@H](O[C@H]2O[C@H](C(=O)O)[C@@H](O)[C@H](O)[C@H]2O[C@@H]2O[C@H](C(=O)O)[C@@H](O)[C@H](O)[C@H]2O)CC[C@]2(C)[C@H]3C(=O)C=C4[C@@H]5C[C@@](C)(C(=O)O)CC[C@]5(C)CC[C@@]4(C)[C@]3(C)CC[C@@H]12 [GLYCYRRHIZIN] | Not Active | Not Active | Not Active | Not Active | Not Active | Not Active | Not Active | Not Active | Not Active | Not Active | Not Active | Not Active | Not Active | Not Active |  | 
6 | COC1=CC(=O)C[C@@H](C)[C@]12Oc1c(Cl)c(OC)cc(OC)c1C2=O [GRISEOFULVIN] | Not Active | Not Active | Not Active | Not Active | Not Active | Not Active | Not Active | Not Active | Not Active | Not Active | Not Active | Not Active | Not Active | Not Active |  | 
7 | C/C=C1\[C@H]2C=C(C)C[C@]1(N)c1ccc(=O)[nH]c1C2 [HUPERZINE A] | Not Active | Not Active | Not Active | Not Active | Not Active | Not Active | Not Active | Not Active | Not Active | Not Active | Not Active | Not Active | Not Active | Not Active |  | 
8 | NS(=O)(=O)c1cc2c(cc1Cl)NCNS2(=O)=O [HYDROCHLOROTHIAZIDE] | Not Active | Not Active | Not Active | Not Active | Not Active | Not Active | Not Active | Not Active | Not Active | Not Active | Not Active | Not Active | Not Active | Not Active |  | 
9 | CN1CCC[C@H]1c1cccnc1 [NICOTINE] | Not Active | Not Active | Not Active | Not Active | Not Active | Not Active | Not Active | Not Active | Not Active | Not Active | Not Active | Not Active | Not Active | Not Active |  | 
10 | O=C1CN=C(c2ccccc2)c2cc([N+](=O)[O-])ccc2N1 [NITRAZEPAM] | Not Active | Not Active | Not Active | Not Active | Not Active | Not Active | Not Active | Not Active | Not Active | Not Active | Not Active | Not Active | Not Active | Not Active |  | 
11 | CNCCC=C1c2ccccc2CCc2ccccc21 [NORTRIPTYLINE] | Not Active | Not Active | Not Active | Not Active | Not Active |  | Not Active | Not Active | Not Active | Not Active | Not Active | Not Active | Not Active | Not Active | 1680 nM | 1330 nM
12 | CC1COc2c(N3CCN(C)CC3)c(F)cc3c(=O)c(C(=O)O)cn1c23 (stereo not drawn) [OFLOXACIN] | Not Active | Not Active | Not Active | Not Active | Not Active | Not Active | Not Active | Not Active | Not Active | Not Active | Not Active | Not Active | Not Active | Not Active |  | 
13 | Oc1cccc2cccnc12 [OXYQUINOLINE] | Not Active | Not Active | Not Active | Not Active | Not Active | Not Active | Not Active | Not Active | Not Active | Not Active | Not Active | Not Active | Not Active | Not Active |  | 
